{
  "source": "paper PMC9257752",
  "about": "“Intestinal Absorption of FITC-Dextrans and Macromolecular Model Drugs in the Rat Intestinal Instillation Model” (Molecular Pharmaceutics, 2022)",
  "key": {"[1]": {"assay": "Rat intestinal instillation model (intraduodenal administration, plasma pharmacokinetics, deconvolution)", "details": "for Proportion of total absorption (120 min) occurring in interval 0–20 min / Proportion of total absorption (120 min) occurring in interval 20–40 min / Proportion of total absorption (120 min) occurring in interval 40–60 min / Proportion of total absorption (120 min) occurring in interval 60–80 min / Proportion of total absorption (120 min) occurring in interval 80–100 min / Proportion of total absorption (120 min) occurring in interval 100–120 min: average ± SD; for Cmax / Tmax: male, Wistar Han, rat, plasma; for Cmax: pH 6.5, Cmax, MEDI7219 1.0 mg, PEP12210 5.0 mg, mean ± SD (CV%); for Tmax: pH 6.5, Tmax", "protocol": "Blank FaSSIF was prepared by dissolving 2.22 g of maleic acid, 1.39 g of sodium hydroxide, and 4.01 g of sodium chloride in Milli-Q water and adjusting the pH to 6.5 and volume to 1000 mL. C10 solutions were prepared at 50 or 300 mM C10 in blank FaSSIF and pH-adjusted to 6.5 by the addition of 2 M HCl. Blank FaSSIF solutions containing 0–300 mM C10 were stored at room temperature (RT) and used within 30 days. The model compounds were dissolved in blank FaSSIF with or without C10 the day before the absorption study and stored at +4 °C overnight. […] All IV formulations were sterile filtered into autoclaved injection vials and stored at +4 °C.\nUpon arrival at the animal facility, the rats underwent an acclimatization period of 5 days with food and water ad libitum.\nBriefly, anesthesia was induced with isoflurane after which the animal was moved to a preheated preparatory table. Fur was shaved from the throat to the lower abdomen and the shaved area was disinfected with a medicinal sponge containing chlorhexidine. The rat was draped in plastic foil and transferred to a preheated operating table where anesthesia was continued throughout the entire study using 3% isoflurane carried in an air/oxygen mixture. A polyurethane catheter was placed in the left carotid artery to allow for blood sampling, as well as blood pressure and heart rate monitoring. A midline incision was made in the abdomen, the duodenum was located and a catheter was placed in the common bile duct to avoid bile secretion into the duodenum. […] The stomach was punctured approximately 1 cm proximal to the pyloric sphincter with a 20G needle. A soft polyurethane catheter with a rounded tip was inserted into the small intestine via the gastric incision so that the tip of the catheter was positioned approximately 4 cm distal to the pylorus. The intestinal catheter was secured to the stomach with a suture and a ligature was placed at the pylorus to prevent backflow of formulation into the stomach and transit of gastric content into the duodenum. A thermometer was placed in the abdominal cavity and the abdomen was closed with stitches. A heating lamp coupled to the thermometer via a thermostat maintained the animal at 37 °C. The surgery was followed by a 30 min recovery period to allow the animal to regain normal temperature and blood pressure.\nThe liquid formulations were equilibrated to room temperature under magnetic stirring for 2 h prior to administration. Intestinal bolus administrations were performed over approximately 5 s via the intestinal catheter. […] The C10 doses were 7.8 mg for administrations with 50 mM C10 and 47 mg for 300 mM C10. Five to six replicates were performed for each administration group. […] Blood plasma was separated by immediately centrifuging the blood samples at +4 °C and 10 000g for 4 min. Plasma samples were transferred to new tubes and stored at −80 °C until analysis.\nThe animals receiving IV administration were handled and prepared in the same way as the animals receiving intestinal administration up until the placement of the carotid catheter. As no abdominal surgery was performed, a thermometer was introduced rectally."}, "pancreatin": {"tested_on": "pancreatin", "design": "method as in PMID 34795324", "details": "simulated intestinal fluid containing pancreatin, over a 60 min period; cited from earlier work"}, "[2]": {"details": "dogs; cited from earlier work", "excerpt": "MEDI7219 is a glucagon-like peptide 1 (GLP-1) receptor agonist drug candidate developed by AstraZeneca.[10] The peptide was designed for oral delivery and has natural amino acid and α-methyl amino acid substitutions to protect against peptidasesin the gastrointestinal tract. The peptide backbone has two lipid side chains that can bind to plasma proteins, thereby prolonging the circulation half-life of the peptide. […] The calculated pI is 3.8, giving the peptide a charge of −6.2 at pH 7.4. The molecular weight of MEDI7219 is 4353, ..."}, "[3]": {"details": "0 mM C10, numerical deconvolution, n = 5–6 (PEP12210 n = 2)"}, "[4]": {"details": "50 mM C10, numerical deconvolution, n = 5–6"}, "[5]": {"details": "300 mM C10, numerical deconvolution, n = 5–6"}},
  "note": "Numbered stars: 1 amine (or outer) side, 2 acyl side, 3 side chain; on linkers, the order of the positions; unused ones are H or OH. Square brackets hold non-standard residues; d marks the D form. Side chains are listed from the residue outwards. Peptide text beside a SMILES is read from it. * marks the point of attachment. γGlu = O=C(O)[C@H](CCC(=O)[*:2])N[*:1]; αMeF = C[C@](N)(Cc1ccccc1)C(=O)O; αMeK = C[C@](N)(CCCCN)C(=O)O; Lauroyl = CCCCCCCCCCCC(=O)*; αMeS = C[C@](N)(CO)C(=O)O; AEEA = NCCOCCOCC(=O)O; Aib = CC(C)(N)C(=O)O",
  "data": [
    {"smiles": "CCCCCCCCCCCC(=O)N[C@@H](CCC(=O)NCCOCCOCC(=O)NCCOCCOCC(=O)NCCCC[C@H](NC(=O)[C@H](C)NC(=O)[C@@H](NC(=O)[C@](C)(Cc1ccccc1)NC(=O)[C@H](CCC(=O)O)NC(=O)[C@](C)(CCCCN)NC(=O)[C@H](C)NC(=O)[C@H](C)NC(=O)[C@H](CCC(=O)O)NC(=O)CNC(=O)[C@H](CCC(=O)O)NC(=O)[C@H](CC(C)C)NC(=O)[C@H](CCCCNC(=O)COCCOCCNC(=O)COCCOCCNC(=O)CC[C@H](NC(=O)CCCCCCCCCCC)C(=O)O)NC(=O)[C@H](CO)NC(=O)[C@](C)(CO)NC(=O)[C@@H](NC(=O)[C@H](CC(=O)O)NC(=O)[C@H](CO)NC(=O)[C@@H](NC(=O)[C@](C)(Cc1ccccc1)NC(=O)[C@H](CO)NC(=O)CNC(=O)[C@H](CCC(=O)O)NC(=O)C(C)(C)NC(=O)[C@@H](N)Cc1c[nH]cn1)[C@@H](C)O)C(C)C)[C@@H](C)CC)C(=O)N[C@H](C(=O)N[C@H](C(=O)N[C@@H](CCC(=O)O)C(=O)NCC(=O)NCC(N)=O)C(C)C)C(C)C)C(=O)O", "note": "[MEDI7219] (H-H[Aib]EGS[αMeF]TSDV[αMeS]SK([AEEA-AEEA-γGlu-Lauroyl])LEGEAA[αMeK]E[αMeF]IAK([AEEA-AEEA-γGlu-Lauroyl])VVEGG-NH2)", "values": [
      {"measurement": "Proportion of total absorption (120 min) occurring in interval 0–20 min", "setting": "[1]; [3]", "value": "11% ± 2.8%"},
      {"measurement": "Proportion of total absorption (120 min) occurring in interval 20–40 min", "setting": "[1]; [3]", "value": "12% ± 2.9%"},
      {"measurement": "Proportion of total absorption (120 min) occurring in interval 40–60 min", "setting": "[1]; [3]", "value": "22% ± 2.5%"},
      {"measurement": "Proportion of total absorption (120 min) occurring in interval 60–80 min", "setting": "[1]; [3]", "value": "15% ± 1.2%"},
      {"measurement": "Proportion of total absorption (120 min) occurring in interval 80–100 min", "setting": "[1]; [3]", "value": "18% ± 2.5%"},
      {"measurement": "Proportion of total absorption (120 min) occurring in interval 100–120 min", "setting": "[1]; [3]", "value": "22% ± 4.9%"},
      {"measurement": "Proportion of total absorption (120 min) occurring in interval 0–20 min", "setting": "[1]; [4]", "value": "72% ± 3.6%"},
      {"measurement": "Proportion of total absorption (120 min) occurring in interval 20–40 min", "setting": "[1]; [4]", "value": "16% ± 2.6%"},
      {"measurement": "Proportion of total absorption (120 min) occurring in interval 40–60 min", "setting": "[1]; [4]", "value": "4.5% ± 1.7%"},
      {"measurement": "Proportion of total absorption (120 min) occurring in interval 60–80 min", "setting": "[1]; [4]", "value": "1.8% ± 5.5%"},
      {"measurement": "Proportion of total absorption (120 min) occurring in interval 80–100 min", "setting": "[1]; [4]", "value": "2.1% ± 2.6%"},
      {"measurement": "Proportion of total absorption (120 min) occurring in interval 100–120 min", "setting": "[1]; [4]", "value": "3.6% ± 4.2%"},
      {"measurement": "Proportion of total absorption (120 min) occurring in interval 0–20 min", "setting": "[1]; [5]", "value": "25% ± 5.1%"},
      {"measurement": "Proportion of total absorption (120 min) occurring in interval 20–40 min", "setting": "[1]; [5]", "value": "20% ± 2.6%"},
      {"measurement": "Proportion of total absorption (120 min) occurring in interval 40–60 min", "setting": "[1]; [5]", "value": "24% ± 2.3%"},
      {"measurement": "Proportion of total absorption (120 min) occurring in interval 60–80 min", "setting": "[1]; [5]", "value": "13% ± 3.5%"},
      {"measurement": "Proportion of total absorption (120 min) occurring in interval 80–100 min", "setting": "[1]; [5]", "value": "10% ± 3.1%"},
      {"measurement": "Proportion of total absorption (120 min) occurring in interval 100–120 min", "setting": "[1]; [5]", "value": "7.8% ± 4.0%"},
      {"measurement": "Cmax", "setting": "[1]; 50 mM C10, blank FaSSIF pH 6.5, dose FD10 10 mg, n = 5–6", "value": 440, "unit": "nM"},
      {"measurement": "Cmax", "setting": "[1]; 300 mM C10, blank FaSSIF pH 6.5, dose FD10 10 mg, n = 5–6", "value": 1400, "unit": "nM"},
      {"measurement": "Tmax", "setting": "[1]; 0 mM C10, blank FaSSIF pH 6.5, median (min–max), n = 5–6 (PEP12210 n = 2)", "value": 2, "unit": "h"},
      {"measurement": "Tmax", "setting": "[1]; 50 mM C10, blank FaSSIF pH 6.5, median (min–max), n = 5–6", "value": 0.333, "unit": "h"},
      {"measurement": "Tmax", "setting": "[1]; 300 mM C10, blank FaSSIF pH 6.5, median (min–max), n = 5–6", "value": 1.5, "unit": "h"},
      {"measurement": "Proportion of peptide remaining intact", "setting": "pancreatin", "value": 90, "unit": "%"},
      {"measurement": "Half-life following oral administration", "setting": "[2]", "value": 9.8, "unit": "h"}
    ]}
  ]
}
